Columns and labels:
gut microbiome species = experiment: Shotgun metagenomics of stool: relative abundance of gut microbiome species after OCA treatment; format: in vivo, human; conditions: for OCA Response: abundance change of the bacterial species, subjects treated with 10 mg of OCA
Description: Twenty-four eligible subjects were enrolled and randomized to 1 of 3 treatment groups (5 mg, 10 mg, or 25 mg) in a treatment ratio of 1:1:1. The study comprised single dose and multiple dose phases. The randomized dose administered in the single dose phase was the subject's dose level for the multiple dose phase. A single dose of OCA (5 mg, 10 mg, or 25 mg) was administered on Day 1. On Day 4, the multiple dose phase began at the same dose level (5 mg, 10 mg, or 25 mg), with subjects receiving OCA once daily for 14 days. The last dose was given to subjects on Day 17. Subjects remained at the inpatient trial site from Day 0 until the morning of Day 30, and returned to the study site for collection of a sample on Days 35, 37, 39, and 44.
Stool specimens for microbiota genome testing were collected up to 2 days prior to submitting them on Day 0, on Day 15, 16, or 17 prior to submitting them on the same day, and up to 2 days prior to submitting them on Day 37. One Day 1, pre-dose blood samples were collected, and serial blood samples were obtained from Day 1 to Day 3 following administration on Day 1 (see Table 1). Multiple dose phase started on Day 4 and lasted through Day 17, during which subjects received once daily doses of OCA (5 mg, 10 mg, or 25 mg) and pre-dose blood samples were drawn (see Table 1).
For microbiome analysis, stool samples were collected on day 0, day 15 or 16, and day 37. FGF19 and C4
The bacterial abundance on species level was generated from MetaPhlAn2 (Segata et al., Nat. Methods 9, 811 (2012)). 341 species were identified from the dataset.
The adaptors, human reads contamination, and low quality sequences were removed from the raw sequencing data using software kneaddata. Trimmomatic (Bolger et al., Bioinformatics 30, 2114 (2014)) was invoked by kneaddata for removing adaptor sequence, trimming low quality bases, and removing low quality reads. Bowtie (Langmead and Salzberg, Nat. Methods 9, 357 (2012)) was invoked by kneaddata for human reads detection. • Removing sequencing noise: For each sample, if the abundance of one species was smaller than 0.05% of the maximum abundance of all species in the sample, it was considered as noise, and the abundance of this species in the sample was set as 0. • Imputing missing value (i.e. Os): Because log 2 transformation was needed in further analysis, adjustment factor (e) was added to the abundance matrix, where e equals 50% of the minimum non-zero abundance value of all samples. • Removing low abundance species: A species was removed if the relative abundance was lower than 0.1% in >=95% of samples. 128 species was kept for further analysis.
• Species differential abundance analysis: The time effect of OCA treatment was studied on three OCA dose groups separately using Friedman rank test. The dose effect of OCA treatment was studied on three time point separately, and Kruskal-Wallis test was used. • Gene differential abundance analysis: For each of the most varying genes, repeated-measure ANOVA was performed to study the time effect and OCA dose effect on gene abundance change.
An open label, randomized, single dose and multiple dose trial to assess the pharmacokinetics of obeticholic acid (OCA) in 24 healthy male or female subjects aged 18 to 55 years receiving 5, 10 or 25 mg OCA was conducted. Stool specimens for microbiota genome testing were collected by subjects up to 2 days before Day 0 (T0), […] (T1), and Day 37 (T2). […]

[1] = system: bacterial strains found in the human small intestine; experiment: Inhibition of bacterial growth by bile acids, microbroth dilution, optical density at 630 nm; format: cell-based
Description: The toxicity of several bile acids to various gut microbiome species was examined. Representative species were exposed to different bile acids at a range of concentrations under either aerobic or anaerobic condition, and the growth of the species at these concentrations was measured by determining the optical density of the culture.
Lactobacillus casei CP was purchased from Custom Probiotics Inc. (Glendale, Calif.) as L. casei Custom Probiotic Powder (strain confirmed by Sanger sequencing of the 16S gene). Pediococcus pentosaceus KE-99 was purchased from Probiohealth (Beverly Hills, Calif.) as KE-99 LACTO Tablet (strain confirmed by Sanger sequencing of the 16S gene). L. casei 393, Streptoccocus thermophilus LMD-9, Akkermansia muciniphila Muc, and Veillonella parvula Te3 were purchased from the American Type Culture Collection (ATCC, Manassas, Va.). Lactococcus lactis NZ9000 was purchased from BOCA Scientific (Boca Raton, Fla.). Escherichia coli Nissle was obtained from Dr. Mark Goulian (University of Pennsylvania, Philadelphia, Pa.).
L. casei, P. pentasaceus, and L. lactis were grown in de Man, Rogosa, and Sharpe (MRS) medium (Anaerobe Systems, Morgan Hill, Calif.); E. coli was grown in lysogeny broth (LB) medium (Fisher Scientific, USA); S. thermophilus and A. muciniphila were grown in brain heart infusion (BHI) medium (Fisher Scientific, USA and Anaerobe Systems, Morgan Hill, Calif.), and; V. parvula was grown in reinforced clostridial medium (Fisher Scientific, USA). Aerobic cultures were incubated at 37° C.; anaerobic cultures were incubated at 37° C. in an anaerobic glove box (Coy Laboratories, Grass Lake, Mich.).
Glycochenodeoxycholic, glycocholic, and taurocholic acids were purchased from Sigma Aldrich (St. Louis, Mo.). Obeticholic acid was provided by Intercept Pharmaceuticals, Inc. (New York, N.Y.).
Inhibition of bacterial growth by bile acids was determined by the microbroth dilution method. Plates were prepared with 100 uL of medium containing the appropriate concentrations of bile acid. Wells were inoculated with 1 uL of an overnight culture, covered, and incubated overnight (3 days for A. muciniphila and V. parvula, which are slow growing organisms). Growth was measured via optical density at 630 nm, and measurements were zeroed against wells containing the appropriate bile acid level with no bacteria. All tests were performed in triplicate. Data is expressed as the percent (%) reduction in growth, which was calculated against controls (i.e., no bile acids). The responses of representative species to different concentrations of bile acids are illustrated by the heat maps shown in FIGS. 53A-53D.

CC[C@H]1[C@@H](O)[C@@H]2[C@H](CC[C@]3(C)[C@@H]([C@H](C)CCC(=O)O)CC[C@@H]23)[C@@]2(C)CC[C@@H](O)C[C@@H]12 [OCA, 3α,7α-dihydroxy-6α-ethyl-5β-cholan-24-oic acid]
time-dependent effect of OCA on Streptococcus thermophilus abundance in fecal microbiota (gut microbiome species; 10 mg OCA group): greatest increase
abundances of all Gram-negative bacteria following OCA treatment (gut microbiome species; 10 mg OCA, Table 15): decreased
numbers of Lactobacillus casei paracasei and Streptococcus thermophilus upon discontinuation of OCA (gut microbiome species; OCA 5 mg, 10 mg, 25 mg): decreased
abundance of Lactobacillus casei paracasei and Streptococcus thermophilus in stool over time (gut microbiome species; OCA 5 mg, 10 mg, 25 mg, Friedman rank test, p<0.05): differentially abundant over time in all three OCA dosage groups
OCA Response (gut microbiome species; Alistipes_putredinis): Decrease
OCA Response (gut microbiome species; Lactococcus_lactis): Increase
OCA Response (gut microbiome species; Subdoligranulum_unclassified): Equivocal
low abundance gram positive organisms with the use of OCA (gut microbiome species; day 16): consistent increase
OCA dose effect on abundance of Bacteroides uniformis and Streptococcus thermophilus (gut microbiome species; day 16 and day 37, Kruskal-Wallis test, p<0.05): significantly different among dose groups
low abundance gram positive organisms after OCA was discontinued (gut microbiome species; day 37): decreased to baseline
abundances of Gram-positive bacterial genera following OCA treatment (gut microbiome species; with two exceptions, 10 mg OCA, Table 15): increased abundances
effect on growth at calculated physiologic levels of the human small intestine ([1]; approximately 12 micromolar, aerobically or anaerobically): no effect on any strain tested
effect on growth at high concentrations ([1]; high concentrations of OCA): growth inhibitory effect on several strains

— patent US20200164005A1, “PHARMACEUTICAL COMPOSITIONS OF A BILE ACID DERIVATIVE AND MICROBIOME AND USES THEREOF” (Intercept Pharmaceuticals, Inc., priority 2017, published 2020)
